The results in this text go back to patent publication US20240083900A1, “PYRAZOLO[1,5-A]PYRAZINE DERIVATIVES AS BTK INHIBITORS” (BIOGEN MA INC., priority 2020, published 2024).

Assay [1] concerns the target BTK (Homo sapiens (Human), UniProt Q06187). Description: In Vitro BTK Kinase Assay: Btk-PolyGAT-LS Assay. Type of assay: biochemical. The conditions noted are these: BTK enzyme 0.25 nM, ATP 10 μM, polyGAT 100 nM, 30 minutes incubation, TRF readout; for pIC50: read-out: IC50. The method in brief:
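Human BTK activity was measured with final 10 μM ATP and 100 nM polyGAT substrate in pH 7.5 Tris buffer with 10 mM MgCl2, DTT, Triton X-100 and casein.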

In assay [2] the test system is CD69 expression on CD19+ B cells in human whole blood stimulated with anti-human IgD. Description: In Vitro whole blood CD69 Assay. Format: cell-based. The conditions noted are these: human heparinized whole blood, anti-human IgD stimulation overnight, percentage of CD19+ B cells expressing CD69, flow cytometry.
Setting [3] is: Homo sapiens, B-cell, read-out: IC50.

Broadly, the pIC50 is the IC50 on a negative log10 scale, so that one unit is a factor of ten. A word on the IC50: it is the concentration needed to halve the response being measured.

pIC50: −log10 of the molar value. Like-named read-outs stand apart in the source and are kept apart here. Bounds are passed on as bounds.

Sequence of BTK (Q06187 whole entry): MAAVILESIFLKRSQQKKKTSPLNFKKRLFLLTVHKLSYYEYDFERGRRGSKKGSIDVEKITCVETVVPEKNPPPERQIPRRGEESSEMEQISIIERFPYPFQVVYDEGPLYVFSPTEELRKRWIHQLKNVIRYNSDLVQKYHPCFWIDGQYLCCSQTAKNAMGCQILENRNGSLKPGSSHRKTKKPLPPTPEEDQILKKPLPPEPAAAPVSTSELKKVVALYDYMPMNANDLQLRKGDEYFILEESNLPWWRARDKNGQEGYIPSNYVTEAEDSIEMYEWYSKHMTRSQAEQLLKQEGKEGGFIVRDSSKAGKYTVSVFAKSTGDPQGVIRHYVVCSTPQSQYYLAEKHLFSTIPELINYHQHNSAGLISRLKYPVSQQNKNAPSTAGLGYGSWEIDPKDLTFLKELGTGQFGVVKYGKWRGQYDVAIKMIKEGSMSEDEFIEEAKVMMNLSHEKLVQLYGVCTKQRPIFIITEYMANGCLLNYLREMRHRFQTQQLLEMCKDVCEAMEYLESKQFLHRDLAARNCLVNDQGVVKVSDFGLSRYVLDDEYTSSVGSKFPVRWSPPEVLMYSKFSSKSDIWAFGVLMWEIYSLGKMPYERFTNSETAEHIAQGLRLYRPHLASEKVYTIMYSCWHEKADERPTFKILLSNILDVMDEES

For the molecule `C=CC(=O)N1CCC[C@H]2[C@@H]1C[C@@]2(C)Oc1nc(-c2cnn(C)c2)cn2nccc12` (single isomer, unassigned) [Example 111], the negative logarithm of the IC50 (pIC50) is greater than 9.00 in assay [1] and greater than 6.00 in assay [2] (setting [3]).

As for `C=CC(=O)NC1CCCN(c2nc(-c3cnn(C)c3)cn3nccc23)C1` (centres unmarked) [Example 20, N-[1-[6-(1-methylpyrazol-4-yl)pyrazolo[1,5-a]pyrazin-4-yl]-3-piperidyl]prop-2-enamide], the pIC50 in assay [1] is 6.00 to 8.00; in assay [2] (setting [3]), less than 5.00.

For the molecule `C#CC(=O)N1CC[C@@H](Oc2nc(-c3cnn(C)c3)cc3nccn23)C1` [Example 39, (R)-1-(3-((7-(1-methyl-1H-pyrazol-4-yl)imidazo[1,2-c]pyrimidin-5-yl)oxy)pyrrolidin-1-yl)prop-2-yn-1-one], the negative logarithm of the IC50 (pIC50) was 6.00 to 8.00 in assay [1] and 5.00 to 6.00 in assay [2] (setting [3]).

For `C#CC(=O)N1CC[C@@H](Oc2nc(-c3cnn(C)c3)cn3nccc23)C1` [Example 13, (R)-1-(3-((6-(1-methyl-1H-pyrazol-4-yl)pyrazolo[1,5-a]pyrazin-4-yl)oxy)pyrrolidin-1-yl)prop-2-yn-1-one], the results for the pIC50 in assay [1] and in assay [2] (setting [3]) were greater than 9.00 and greater than 6.00, respectively.

Consider `C=CC(=O)N(C)[C@H]1C[C@@](C)(Oc2nc(-c3cnn(C)c3)cn3nccc23)C1(C)C` (single isomer, unassigned) [Example 140], for which the pIC50 is greater than 9.00 in assay [1] and greater than 6.00 in assay [2] (Homo sapiens, B-cell).

On to `C=CC(=O)N1CCCC(Oc2nc(-c3cnn(C)c3)cn3ncnc23)CC1` (centres unmarked) [Example 57, 1-(4-((6-(1-methyl-1H-pyrazol-4-yl)-[1,2,4]triazolo[1,5-a]pyrazin-8-yl)oxy)azepan-1-yl)prop-2-en-1-one], for which the figures for the pIC50 in assay [1] and in assay [2] (setting [3]) were 8.00 to 9.00 and 5.00 to 6.00, respectively.

As for `C=CC(=O)N(C)[C@@H]1C[C@@](C)(Oc2nc(-c3cnn(C)c3)cn3nccc23)[C@@H]1C` (single isomer, unassigned) [Example 107], the negative logarithm of the IC50 (pIC50) was 8.00 to 9.00 in assay [1] and greater than 6.00 in assay [2] (setting [3]).

`C=CC(=O)N(C)[C@H]1C[C@@](C)(Oc2nc(-c3cnn(C)c3)cn3ncc(F)c23)C1` [Example 211, N-((1s,3s)-3-((3-fluoro-6-(1-methyl-1H-pyrazol-4-yl)pyrazolo[1,5-a]pyrazin-4-yl)oxy)-3-methylcyclobutyl)-N-methylacrylamide]: the pIC50 is greater than 9.00 in assay [1] and greater than 6.00 in assay [2] (setting [3]).

`C=CC(=O)N(C)[C@H]1C[C@@](C)(Oc2nc(-c3cnn(C)c3)cn3nccc23)C1(C)C` (single isomer, unassigned) [Example 141] gave an IC50 in assay [1] (IC50 (nM)) of 1 to 10 nM. For the same molecule, in assay [2], the pIC50 was 5.00 to 6.00.

Consider `C=CC(=O)N1CC2CC(C1)C2COc1nc(-c2cnn(C)c2)cn2nccc12` (centres unmarked) [Example 126, 1-(6-(((6-(1-methyl-1H-pyrazol-4-yl)pyrazolo[1,5-a]pyrazin-4-yl)oxy)methyl)-3-azabicyclo[3.1.1]heptan-3-yl)prop-2-en-1-one], for which the pIC50 was greater than 9.00 in assay [1] and greater than 6.00 in assay [2] (setting [3]).

On to `C=CC(=O)N1CCO[C@@](C)(COc2nc(-c3cnn(C)c3)cn3nccc23)C1` (single isomer, unassigned) [Example 118, (R) or (S)-1-(2-methyl-2-(((6-(1-methyl-1H-pyrazol-4-yl)pyrazolo[1,5-a]pyrazin-4-yl)oxy)methyl)morpholino)prop-2-en-1-one], for which the pIC50 in assay [1] was greater than 9.00; in assay [2] (setting [3]), greater than 6.00.

For `C=CC(=O)NC12CCC(Oc3nc(-c4cnn(C)c4)cn4nccc34)(CC1)C2` [Example 125, N-(4-((6-(1-methyl-1H-pyrazol-4-yl)pyrazolo[1,5-a]pyrazin-4-yl)oxy)bicyclo[2.2.1]heptan-1-yl)acrylamide], the results for the pIC50 in assay [1] and in assay [2] (setting [3]) were 8.00 to 9.00 and 5.00 to 6.00, respectively.

Take `C=CS(=O)(=O)N1CCC[C@@H](Oc2nc(-c3cnn(C)c3)cn3nccc23)CC1` [Example 28, (R)-6-(1-methyl-1H-pyrazol-4-yl)-4-((1-(vinylsulfonyl)azepan-4-yl)oxy)pyrazolo[1,5-a]pyrazine]: the results for the pIC50 in assay [1] and in assay [2] (setting [3]) were greater than 9.00 and greater than 6.00, respectively.

Take `C=CS(=O)(=O)N1CCC[C@H](COc2nc(-c3cnn(C)c3)cn3nccc23)C1` [Example 15, (S)-6-(1-methyl-1H-pyrazol-4-yl)-4-((1-(vinylsulfonyl)piperidin-3-yl)methoxy)pyrazolo[1,5-a]pyrazine]: the pIC50 in assay [1] is 8.00 to 9.00; in assay [2] (setting [3]) it was 5.00 to 6.00.

As for `C#CC(=O)NCC1CCCCN1c1nc(-c2cnn(C)c2)cn2nccc12` (single isomer, unassigned) [Example 26 E2, N-[[1-[6-(1-methylpyrazol-4-yl)pyrazolo[1,5-a]pyrazin-4-yl]-2-piperidyl]methyl]prop-2-ynamide], the pIC50 was greater than 9.00 in assay [1] and greater than 6.00 in assay [2] (listed as 26 E2, read-out: IC50).

With `C=CC(=O)N(C)[C@H]1CC[C@@H]1COc1nc(-c2cnn(C)c2)cn2nccc12` (relative stereo) [Example 129, trans-N-methyl-N-(2-(((6-(1-methyl-1H-pyrazol-4-yl)pyrazolo[1,5-a]pyrazin-4-yl)oxy)methyl)cyclobutyl)acrylamide], the negative-log IC50 (pIC50) in assay [1] was 6.00 to 8.00; in assay [2] (setting [3]) it was 5.00 to 6.00.

`C=CC(=O)N1CC[C@@H]2[C@H]1C(C)(C)[C@H]2Oc1nc(-c2cnn(C)c2)cn2nccc12` [Example 170, 1-((1S,5R,6S)-7,7-dimethyl-6-((6-(1-methyl-1H-pyrazol-4-yl)pyrazolo[1,5-a]pyrazin-4-yl)oxy)-2-azabicyclo[3.2.0]heptan-2-yl)prop-2-en-1-one]: the pIC50 in assay [1] is 6.00 to 8.00; in assay [2] (setting [3]), 5.00 to 6.00.

For the molecule `C=CC(=O)N1C[C@H]2C[C@H](Oc3nc(-c4cnn(C)c4)cn4nccc34)C[C@H]2C1` [Example 174, 1-((3aR,5s,6aS)-5-((6-(1-methyl-1H-pyrazol-4-yl)pyrazolo[1,5-a]pyrazin-4-yl)oxy)hexahydrocyclopenta[c]pyrrol-2(1H)-yl)prop-2-en-1-one], the pIC50 in assay [1] is greater than 9.00; in assay [2] (setting [3]), greater than 6.00.

For the molecule `C=CC(=O)N1CC[C@H]2[C@@H](Oc3nc(-c4cnn(C)c4)cn4nccc34)C(C)(C)[C@H]21` [Example 171, 1-((1S,5R,6R)-7,7-dimethyl-6-((6-(1-methyl-1H-pyrazol-4-yl)pyrazolo[1,5-a]pyrazin-4-yl)oxy)-2-azabicyclo[3.2.0]heptan-2-yl)prop-2-en-1-one], the pIC50 is 6.00 to 8.00 in assay [1] and 5.00 to 6.00 in assay [2] (setting [3]).

Take `C=CC(=O)N(C)[C@@H]1COC[C@H](Oc2nc(-c3cnn(C)c3)cn3nccc23)C1` (racemic) [Example 96, N-methyl-N-((cis)-5-((6-(1-methyl-1H-pyrazol-4-yl)pyrazolo[1,5-a]pyrazin-4-yl)oxy)tetrahydro-2H-pyran-3-yl)acrylamide]: the pIC50 in assay [1] is greater than 9.00; in assay [2] (setting [3]), greater than 6.00.

As for `CC#CC(=O)N(C)[C@H]1CCC[C@@H](Oc2nc(-c3cnn(C)c3)cn3nccc23)C1` [Example 177, N-methyl-N-((1S,3R)-3-((6-(1-methyl-1H-pyrazol-4-yl)pyrazolo[1,5-a]pyrazin-4-yl)oxy)cyclohexyl)but-2-ynamide], the pIC50 in assay [1] is greater than 9.00; in assay [2] (setting [3]), greater than 6.00.

`CC#CC(=O)N[C@H]1CC[C@@H](Oc2nc(-c3cnn(C)c3)cn3ncc(F)c23)C1` [Example 95, N-((1S,3R)-3-((3-fluoro-6-(1-methyl-1H-pyrazol-4-yl)pyrazolo[1,5-a]pyrazin-4-yl)oxy)cyclopentyl) but-2-ynamide]: the pIC50 is greater than 9.00 in assay [1] and greater than 6.00 in assay [2] (setting [3]).

Turning to `C#CC(=O)N1CCC[C@H](Oc2nc(-c3cnn(C)c3)cn3nccc23)CC1` [Example 31, (S)-1-(4-((6-(1-methyl-1H-pyrazol-4-yl)pyrazolo[1,5-a]pyrazin-4-yl)oxy)azepan-1-yl)prop-2-yn-1-one], the pIC50 is greater than 9.00 in assay [1] and 5.00 to 6.00 in assay [2] (setting [3]).

For `C=CS(=O)(=O)N1CC[C@@H](Oc2nc(-c3cnn(C)c3)cn3nccc23)C1` [Example 12, (R)-6-(1-methyl-1H-pyrazol-4-yl)-4-((1-(vinylsulfonyl)pyrrolidin-3-yl)oxy)pyrazolo[1,5-a]pyrazine], the values for the pIC50 in assay [1] and in assay [2] (setting [3]) were 8.00 to 9.00 and less than 5.00, respectively.

For the molecule `C=CC(=O)N1CCC[C@H](Oc2nc(-c3ccc(=O)n(C)c3)cn3nccc23)CC1` (single isomer, unassigned) [Example 71 E1], the pIC50 in assay [1] was 8.00 to 9.00; in assay [2] (setting [3]), greater than 6.00.

With `C=CC(=O)N(C)[C@H]1C[C@@](Oc2nc(-c3cnn(C)c3)cn3nccc23)(C2CC2)C1` [Example 104, N—((1r,3r)-3-cyclopropyl-3-((6-(1-methyl-1H-pyrazol-4-yl)pyrazolo[1,5-a]pyrazin-4-yl)oxy)cyclobutyl)-N-methylacrylamide], the pIC50 in assay [1] is 6.00 to 8.00; in assay [2] (read-out: IC50), 5.00 to 6.00.

Turning to `C=CC(=O)N(C)[C@H]1C[C@@H](Oc2nc(-c3cnn(C)c3)cn3ncc(F)c23)C1` [Example 63, N-((cis)-3-((3-fluoro-6-(1-methyl-1H-pyrazol-4-yl)pyrazolo[1,5-a]pyrazin-4-yl)oxy)cyclobutyl)-N-methylacrylamide], the negative-log IC50 (pIC50) in assay [1] is greater than 9.00; in assay [2] (setting [3]), less than 5.00.

`C=CC(=O)N1CCOC[C@H](Oc2nc(-c3cnn(C)c3)cn3nccc23)C1` [Example 58, (R)-1-(6-((6-(1-methyl-1H-pyrazol-4-yl)pyrazolo[1,5-a]pyrazin-4-yl)oxy)-1,4-oxazepan-4-yl)prop-2-en-1-one]: the results for the negative-log IC50 (pIC50) in assay [1] and in assay [2] (setting [3]) were 6.00 to 8.00 and less than 5.00, respectively.
